1 molecule from US9487519B2, “5,6-Dialkyl-7-aminotriazolopyrimidines, their preparation and their use for controlling harmful fungi, and compositions comprising these compounds” (BASF SE, priority 2004, dated 2016) can be followed below.

One assay has as its system Phytophthora infestans. Format: in vivo. Conditions: 250 ppm, potted tomato plants sprayed to runoff, infected next day, assessed after 6 days; untreated plants 100% infected.
The next assay deals with Plasmopara viticola. Nature of the assay: Activity against Peronospora of grapevines caused by Plasmopara viticola (Use Example 1). The conditions noted are these: 250 ppm, potted vines sprayed to runoff, inoculated next day; untreated plants 95% infected. Format: in vivo. As for the experimental part: The active compounds were prepared as a stock solution comprising 25 mg of active compound which was made up to 10 ml using a mixture of acetone and/or DMSO and the emulsifier Uniperol® EL (wetting agent having emulsifying and dispersing agent based on ethoxylated alkylphenols) in a ratio by volume of solvent/emulsifier of 99/1. The mixture was then made up to 100 ml with water. This stock solution was, using the solvent/emulsifier/water mixture described, diluted to the active compound concentration stated below.
Leaves of potted vines were sprayed to runoff point with an aqueous suspension having the concentration of active compound stated below. The next day, the undersides of the leaves were inoculated with an aqueous sporangia suspension of Plasmopara viticola. The vines were then initially placed in a water-vapor-saturated chamber at 24° C. for 48 hours and then in a greenhouse at temperatures between 20° C. and 30° C. for 5 days. After this time, the plants were once more placed in a humid chamber for 16 hours to promote the eruption of sporangiophores. The extent of the development of the infection on the undersides of the leaves was then determined visually.

Each structure is given as a SMILES string.

In the case of `CCCCCCCCc1c(CC)nc2ncnn2c1N` [I-2, 7-amino-5-ethyl-6-octyl[1,2,4]triazolo[1,5-a]pyrimidine], the “infection (late blight), determined visually” value in the assay on Phytophthora infestans is recorded as “no infection”. In addition, the “infection on the undersides of the leaves, determined visually” value in the assay with Plasmopara viticola is “no infection”.
